In ChEMBL document CHEMBL1122779, “Antiinflammatory agents. 3. Synthesis and pharmacological evaluation of 2-amino-3-benzoylphenylacetic acid and analogues” (J Med Chem, 1984):

Assays:
[1] = target: T1, Cyclooxygenase (Bos taurus, UniProt O62664+O62698)
T1 sequence (O62664 whole entry): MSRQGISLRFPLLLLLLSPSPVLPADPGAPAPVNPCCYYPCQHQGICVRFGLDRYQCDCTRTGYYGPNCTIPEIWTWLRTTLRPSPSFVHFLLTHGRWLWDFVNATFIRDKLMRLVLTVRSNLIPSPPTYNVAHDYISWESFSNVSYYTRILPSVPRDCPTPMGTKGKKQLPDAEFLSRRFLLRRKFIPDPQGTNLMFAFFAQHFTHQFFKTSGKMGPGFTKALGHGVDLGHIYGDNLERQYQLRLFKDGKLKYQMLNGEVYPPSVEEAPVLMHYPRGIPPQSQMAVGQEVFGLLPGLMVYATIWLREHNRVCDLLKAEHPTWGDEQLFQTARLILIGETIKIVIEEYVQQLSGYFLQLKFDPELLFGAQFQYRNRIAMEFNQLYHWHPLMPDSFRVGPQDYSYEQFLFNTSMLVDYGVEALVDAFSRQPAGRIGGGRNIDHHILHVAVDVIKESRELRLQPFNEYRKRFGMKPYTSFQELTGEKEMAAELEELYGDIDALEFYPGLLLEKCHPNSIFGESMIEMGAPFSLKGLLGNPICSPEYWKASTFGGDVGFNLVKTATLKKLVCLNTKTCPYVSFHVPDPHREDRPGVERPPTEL
T1 sequence (O62698 whole entry): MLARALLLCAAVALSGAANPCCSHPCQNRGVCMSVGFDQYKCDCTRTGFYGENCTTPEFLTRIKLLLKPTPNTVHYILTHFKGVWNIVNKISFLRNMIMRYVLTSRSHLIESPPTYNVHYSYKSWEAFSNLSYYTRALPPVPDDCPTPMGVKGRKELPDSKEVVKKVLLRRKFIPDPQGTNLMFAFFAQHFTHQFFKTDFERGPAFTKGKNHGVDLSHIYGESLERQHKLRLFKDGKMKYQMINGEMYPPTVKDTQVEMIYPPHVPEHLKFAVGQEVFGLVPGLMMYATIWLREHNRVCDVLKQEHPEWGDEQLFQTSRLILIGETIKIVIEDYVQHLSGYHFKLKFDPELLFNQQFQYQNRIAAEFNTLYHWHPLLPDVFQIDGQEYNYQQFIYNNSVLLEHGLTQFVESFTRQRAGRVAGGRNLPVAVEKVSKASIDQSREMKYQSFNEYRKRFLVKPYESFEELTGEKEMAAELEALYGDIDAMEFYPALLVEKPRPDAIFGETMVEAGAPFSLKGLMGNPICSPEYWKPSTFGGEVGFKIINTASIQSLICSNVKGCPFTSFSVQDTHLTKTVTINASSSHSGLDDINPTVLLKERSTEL
Description: Inhibition of prostaglandin G/H synthase obtained from bovine seminal vesicles.

[2] = system: Rattus norvegicus; assay: Percent change in average volume of pleural fluid at a dose of 4.0 mg/kg and 5-h response by Evans blue-carrageenan induced pleural effusion assay.; format: functional
[3] = system: Rattus norvegicus; assay: Percent change in average volume of pleural fluid at a dose 4 mg/kg of indomethacin and 5-h response is evaluated by Evans blue-carrageenan induced pleural effusion assay; format: functional
[4] = system: Rattus norvegicus; assay: Percent change in average volume of pleural fluid at a dose of 100 mg/kg and 5-h response by Evans blue-carrageenan induced pleural effusion assay.; format: functional
[5] = system: Mus musculus; assay: Oral analgesic activity was determined in mice by the acetylcholine-induced abdominal constriction assay upon ip administration of acetylcholine bromide 5 hours following oral administration; format: functional; conditions: Abdomen
[6] = system: Rattus norvegicus; assay: Evaluated for chronic intestinal toxicity (multiple oral dose) in rats; format: organism-based; conditions: in vivo
[7] = system: Mus musculus; assay: Oral analgesic activity was determined in mice by the acetylcholine-induced abdominal constriction assay upon ip administration of acetylcholine bromide 20 min following oral administration; format: functional; conditions: Abdomen
[8] = system: Rattus norvegicus; assay: Acute gastric toxicity (single oral dose) in male fasted rats; format: organism-based, Stomach; conditions: in vivo
[9] = organism: Rattus norvegicus; assay: Evaluated for acute potency in pleural effusion assay; format: functional
[10] = organism: Rattus norvegicus; assay: Evaluated for chronic potency in adjuvant arthritis assay; format: functional

IC50 [1]	Compound	Change [2]	Change [3]	Change [4]	ED50 [5]	Intestinal toxicity [6]	ED50 [7]	Gastric toxicity [8]	Potency [9]	Potency [10]
0.07 µM	Cc1ccc(C(=O)c2cc(F)cc(CC(=O)[O-])c2N)cc1.[Na+]	-32%	-36%	-49%						
3 µM	Cc1ccc(C(=O)c2ccccc2)c(N)c1CC(=O)[O-].[Na+]	2%	-38%	-39%						
30 µM	Cc1ccc(C(=O)c2cc(C)cc(CC(=O)[O-])c2N)cc1.[Na+]	-12%	-42%	-33%						
1 µM	Nc1c(CC(=O)[O-])cccc1C(=O)c1ccc(C(F)(F)F)cc1.[Na+]	-38%		-24%						
0.1 µM	CSc1ccc(C(=O)c2cccc(CC(=O)[O-])c2N)cc1.[Na+]	-21%	-30%							
30 µM	Nc1c(CC(=O)[O-])cc(Cl)cc1C(=O)c1ccc(O)cc1.[Na+]	-3%	-40%	-21%						
12 µM	COc1cc(CC(=O)[O-])c(N)c(C(=O)c2ccc(Cl)cc2)c1.[Na+]	-26%	-37%	-36%						
1 µM	Nc1c(CC(=O)[O-])cc(Cl)cc1C(=O)c1ccccc1.[Na+]	-17%	-35%							
0.6 µM	Nc1c(CC(=O)[O-])cc(Br)cc1C(=O)c1ccc(Cl)cc1.[Na+]	-26%	-40%	-42%						
0.9 µM	Nc1c(CC(=O)[O-])cccc1C(=O)c1ccc(F)cc1.[Na+]	0%	-35%	-36%						
0.3 µM	Cc1ccc(C(=O)c2cccc(CC(=O)[O-])c2N)cc1.[Na+]	-17%	-39%							
1 µM	Cc1cc(CC(=O)[O-])c(N)c(C(=O)c2ccc(Cl)cc2Cl)c1.[Na+]	-24%	-45%	-43%						
50 µM	Nc1c(CC(=O)[O-])cccc1C(=O)c1ccc(Cl)c(Cl)c1.[Na+]	-10%	-30%							
0.1 µM	Cc1ccc(C(=O)c2cccc(CC(=O)[O-])c2N)c(C)c1.[Na+]	-3%	-40%	-38%						
11 µM	Cc1cc(CC(=O)[O-])c(N)c(C(=O)c2ccccc2)c1.[Na+]	-11%	-25%	-35%						
17 µM	Cc1cc(CC(=O)[O-])c(N)c(C(=O)c2ccc(F)cc2)c1.[Na+]	0%	-42%	-35%						
1 µM	Cc1ccccc1C(=O)c1cccc(CC(=O)[O-])c1N.[Na+]	-13%	-25%	-32%						
> 1000 µM	Cc1ccc(CC(=O)[O-])c(N)c1C(=O)c1ccccc1.[Na+]	-38%	-1%	-13%						
0.3 µM	Nc1c(CC(=O)[O-])cccc1C(=O)c1ccccc1Cl.[Na+]	-22%	-33%	-42%						
68 µM	COc1ccc(C(=O)c2cccc(CC(=O)[O-])c2N)cc1.[Na+]	-10%	-35%							
37 µM	Nc1c(CC(=O)[O-])ccc(Cl)c1C(=O)c1ccccc1.[Na+]	-4%	-35%	-45%						
0.4 µM	CSc1ccc(C(=O)c2cc(C)cc(CC(=O)[O-])c2N)cc1.[Na+]	-26%	-42%	-47%						
0.2 µM	Nc1c(CC(=O)[O-])cc(F)cc1C(=O)c1ccccc1.[Na+]	-9%	-20%	-33%						
0.9 µM	COc1cc(CC(=O)[O-])c(N)c(C(=O)c2ccc(Br)cc2)c1.[Na+]	-28%	-25%	-33%						
> 1000 µM	Nc1c(CC(=O)[O-])cccc1C(=O)c1cccc(Cl)c1.[Na+]	-15%	-33%	-35%						

Compound	IC50 [1]	Change [2]	Change [3]	Change [4]	ED50 [5]	Intestinal toxicity [6]	ED50 [7]	Gastric toxicity [8]	Potency [9]	Potency [10]
Nc1c(CC(=O)[O-])cc(Cl)cc1C(=O)c1ccc(Br)cc1Cl.[Na+]	0.05 µM	-25%	-36%	-37%	0.19 mg/kg	3.3	0.66 mg/kg	1.2	4.9	2.5
Nc1c(CC(=O)[O-])cccc1C(=O)c1ccc(Br)cc1Cl.[Na+]	0.05 µM	-26%	-32%	-37%	1.6 mg/kg	1.6	0.12 mg/kg	5.6	1.6	7.4
Nc1c(CC(=O)[O-])cc(Br)cc1C(=O)c1ccc(Br)cc1.[Na+]	0.8 µM	-30%	-33%	-34%	0.2 mg/kg	1	> 0.32 mg/kg	1.1	4.2	2.5
CSc1ccc(C(=O)c2cc(F)cc(CC(=O)[O-])c2N)cc1.[Na+]	0.008 µM	-28%	-33%		> 1 mg/kg		0.1 mg/kg		0.4	0.03
Cc1ccc(C(=O)c2cc(Cl)cc(CC(=O)[O-])c2N)cc1.[Na+]	0.02 µM	-35%	-40%	-44%	0.43 mg/kg		0.1 mg/kg	0.7	1.6	0.1
Nc1c(CC(=O)[O-])cc(F)cc1C(=O)c1ccc(Cl)cc1Cl.[Na+]	0.1 µM	-41%	-45%	-46%	0.65 mg/kg		0.16 mg/kg	1	1.2	0.13
Cc1cc(CC(=O)[O-])c(N)c(C(=O)c2ccc(Br)cc2)c1.[Na+]	0.7 µM	-31%	-36%	-39%	0.7 mg/kg	1.1	0.72 mg/kg	1.2	2.8	1
Nc1c(CC(=O)[O-])cccc1C(=O)c1ccc(-c2ccccc2)cc1.[Na+]	0.08 µM	-15%	-36%	-14%						
Nc1c(CC(=O)[O-])cc(F)cc1C(=O)c1ccc(F)cc1.[Na+]	0.2 µM	-42%	-40%	-42%			0.71 mg/kg	0.37	1.4	0.01
CSc1ccc(C(=O)c2cc(Cl)cc(CC(=O)[O-])c2N)cc1.[Na+]	0.02 µM	-43%	-40%	-43%	1.9 mg/kg		0.1 mg/kg	0.9	1.8	0.1
